The source of these data is patent US20090123940A1, “MOLECULES INVOLVED IN SYNAPTOGENESIS AND USES THEREFOR” (THE JOHNS HOPKINS UNIVERSITY, priority 2007, published 2009).

The subject of assay [1] is LFC-NPR (TACE cleavage of NPR). The assay is described as follows: Western blot of LFC-NPR in lysates of cultured cortical neurons after DHPG. Type of assay: cell-based. As for the experimental part:
Cell Culture, Transfection, Western Blot Analysis, and Co-immunoprecipitation analysis. HEK293T and […] (ATCC, Manassas, Va.) cell maintenance and transfection methods have been described previously (Xu et al., supra). Preparation and transfection of cultured hippocampal neurons were described previously (Rumbaugh et al., J Neurosci 23:4567-76, 2003). Western blot analysis of homogenates of HEK293T cells, cultured neurons, and brain extracts was performed as described previously (Xu et al., supra). Co-IP analysis to measure interaction between NPR and AMPAR was performed as described (Xu et al., supra).
Ab LFC-NPR was used to examine the possibility that mGluR1/5 might regulate cleavage of NPR. mGluR1/5 activates PKC via phospholipase C and the production of diacylglycerol (DAG) and inositol triphosphate (IP3) that releases intracellular Ca^2+. […] Ab LFC-NPR detected a ˜60 kDa band from lysates that increased in intensity (expressed as a percent control) over time after stimulation with DHPG. No specific band was detected in the medium by Ab LFC-NPR or other NPR Abs. Absence of LFC-NPR in the medium of neurons was consistent with the observation that both Narp and NP1 were absent from medium even though they are secreted proteins detected on the cell surface using live labeling methods. […]
In general terms: Immunoblotting shows a protein as a band on a membrane.

The next assay deals with GluR1. The experiment in a line: Immunocytochemical staining of surface and internalized GluR1 in cultured hippocampal neurons. Type of assay: cell-based. On the procedure:
Immunocytochemical staining. Immunocytochemical staining of heterologous cells was performed as described (Xu et al., supra). For PMA-stimulation experiments, PMA (Sigma Cat #: P8139) at (150 nM) was added 90 minutes prior to live staining. Images were viewed and captured using Nikon E800 epifluorescence microscope fitted with a Princeton Instruments CCD camera. For live staining, neurons cultured on coverslips were incubated at 10° C. with the appropriate primary antibodies at the indicated dilutions in conditioned culture medium for 20 min. They were then washed with PBS and fixed with 4% paraformaldehyde/4% sucrose in PBS for 20 min at room temperature. Cells were permeablized with 0.2% Triton X-100 in PBS for 5 min and then blocked in 10% normal goat serum in PBS for 1 hr at room temperature. If intracellular proteins were of interest, coverslips were then incubated with antibody diluted in 10% normal goat serum for 1 hr at room temperature or overnight at 4° C. Coverslips were washed with PBS and incubated with secondary antibody conjugated to Alexa488 and Alexa555 (1:500 in 10% normal goat serum, Molecular Probes Eugene, Oreg.). Coverslips were mounted using the Prolong Antifade Kit (Molecular Probes, Eugene, Oreg.). For immunocytochemistry studies, mGluR1/5 were activated using the selective agonist (S)-DHPG (Tocris Cat.# 0805) with mGluR5 allosteric potentiator DFB (Tocris Cat.#1625). Neurons were incubated with DFB (50 μM) for 5 min and then DHPG (50 μM) for an additional 5 min in neuronal incubation medium and then transferred into the original incubation medium. […] Cells were incubated at 37° C. to allow endocytosis. At indicated time points, cells were incubated with N-terminal GluR1 mouse antibody (JH 4093; 0.2 μg/100 μl; kind gift from T. […] (to block endocytosis during staining). Cells were then processed for immunofluorescent staining as described above. An acid strip protocol was employed to measure endocytosed antibody labeled GluR1 (Snyder et al., 2001). Neurons were washed with progressively cooler NIM to slow basal endocytosis. Cells were then live labeled at 10° C. with GluR1 N-terminal antibody (0.2 μg/100 μL JH4094) antibody in NIM for 20 min. After washing unbound excess antibody, cells were incubated sequentially with DFB, DHPG, and original incubation medium at 37° C., as described above. After appropriate incubation times, cells were washed with 4° C. TBS. […] Neurons were then washed with 4° C. TBS followed by processing for immunofluorescent staining as described above. All neurons were viewed and captured using UltraVIEW spinning disk confocal microscope (PerkinElmer Life Sciences, Wellesley, Mass., USA) with a Nikon Eclipse TE 200 microscope and a 63× objective (Nikon, Melville, N.Y.). Images were acquired and saved as Tiff files with a dynamic range of 65536 grey levels (16-bit binary). Image analysis was performed using Metamorph imaging software (Universal Imaging, Downingtown, Pa.). For quantification of the punctate structures (e.g. GluR1), images were thresholded by grey value to differentiate single puncta. Segments of dendrites were selected and number of puncta was calculated per […] of length dendrite. Figures show ratios of calculated mean densities (number of puncta per unit length) from treated/control. Error bars were calculated using SEM and Gaussian error propagation. n=number of measured dendrites. Significance was determined by paired Student's T-test.

In assay [2] the test system is Schaffer collateral-CA1 synapse. The assay is described as follows: mGluR1/5-dependent LTD in hippocampal slices (field EPSP recording). Type of assay: cell-based, mouse. The settings on record: for fEPSP slope after DHPG-induced LTD: control mouse slices, t=75 min, DHPG 50 μM for 5 min, TAPI-2 50 μM for 20 min starting 15 min before DHPG. As for the experimental part:
mGluR1/5-dependent LTD in hippocampus. Hippocampal slices from postnatal day 21 to 28 mice were prepared as previously described (Huber et al., Science 288:1254-[…]). […] Transverse slices (400 μm thick) were cut on a Vibratome 3000 (The Vibratome company). Slices were transferred to a reservoir chamber filled with a normal aCSF which comprised (in mM): 124 mM NaCl, 2.5 mM KCl, 1.3 mM MgCl2, 2.5 mM CaCl2, 1 mM NaH2PO4, 26.2 mM NaHCO3, and 20 D-glucose. Slices were allowed to recover for 2-6 hr at room temperature (22-24° C.). For recording, slices were transferred to an interface type chamber, maintained at 32° C. for 1 hr, and perfused continuously with aCSF at a rate of 2.5 mL/min. Standard methods were used to record field EPSPs (fEPSPs) from the stratum radiatum in response to stimulation of the Schaffer collateral-commissural pathway with a concentric bipolar tungsten electrode (FHC, Bowdoin, Me.). The stimulus intensity was adjusted to elicit 50-60% of the maximal response. Evoked responses were stored on-line and analyzed off-line using Clampfit (Ver. 9.2). […] The strength of the synaptic response was measured as the fEPFP slope. […] LTD was expressed as percentage of the fEPSP slope during the baseline recording. All data shown for the time course are mean±SEM.

[3] abbreviates: cultured hippocampal neurons DIV 14-17, 45 min after DHPG, TAPI-2 = pretreatment (50 μM) before DHPG.
The mark [4] stands for this setting: neurons derived from control mice.

Where only a bound is given, the exact number is not on record here.

As to `N[C@H](C(=O)O)c1cc(O)cc(O)c1` [DHPG, (S)-3,5-dihydroxyphenylglycine], the “increase of LFC-NPR levels in lysates” value in assay [1] (90 minutes after stimulation with 50 μM DHPG for 5 minutes, cultured cortical neurons ~DIV 14) is 60.7%±2.5%. The “surface GluR1 puncta density” value is given as 113.4±6.3 % of vehicle control in the assay on GluR1 (DHPG treated neurons cultured from NP TKO mice), 68.5±6.0 % of vehicle control with GluR1 (DHPG treated neurons derived from control mice) and 47.6±8.5 % of vehicle control with GluR1 (setting [3]). Further, the “internalized GluR1 (acid-strip protocol)” value with GluR1 (setting [4]) is given as “evoked an increase in internalized GluR1”. Besides, the “time to maximal internalized GluR1 after addition of DHPG” value in the assay on GluR1 (setting [4]) was ≤ 5 min. The “GluR1 internalization (acid-strip protocol)” value in the assay with GluR1 (neurons from NP TKO mice) is recorded as “did not increase GluR1 internalization”. The “fEPSP slope after DHPG-induced LTD” value in assay [2] is recorded as 74.0±3.3 % of baseline. Moreover, the “DHPG-induced LTD (fEPSP slope)” value in assay [2] (slices from NP TKO mice, n=9) is listed as 85.9±4.1%; in assay [2] (slices from NPR KO mice, n=7) it was 96.3±2.5%; in assay [2] (slices from wild-type mice, n=13) it was 68.6±3.7%.

For `CC(C)C[C@H](CC(=O)NO)C(=O)N[C@H](C(=O)N[C@@H](C)C(=O)NCCN)C(C)(C)C` [TAPI-2], the “DHPG-stimulated increase in LFC-NPR” value in assay [1] (pretreatment of cultured neurons with TAPI-2) was “blocked”. Also, the “surface GluR1 puncta density” value in the assay on GluR1 (setting [3]) is given as 84.7±12.6 % of vehicle control. In addition, the “initial, phasic EPSP depression during DHPG treatment” value in assay [2] (TAPI-2 50 μM) is listed as “no effect”. Besides, the “basal fEPSP slope or probability of release as indexed by paired pulse ratio (PPR)” value in assay [2] (TAPI-2 50 μM for 20 min) was “did not alter”. For the same compound, in assay [2], the “fEPSP slope after DHPG-induced LTD” value is listed as 93.8±2.5 % of baseline. Also, the “PP-1 Hz induced LTD (fEPSP slope)” value in assay [2] (control slices pretreated with TAPI-2 50 μM, t=50 min, n=4) is 101.8±5.6 % of baseline.
